Measurements as given in publication PMC6364417, “Kinase inhibitor library screening identifies synergistic drug combinations effective in sensitive and resistant melanoma cells” (Journal of Experimental & Clinical Cancer Research : CR, 2019).

Assays:
Assay in all cases: Kinase inhibitor library screening, PrestoBlue cell viability, 1 or 10 μM, 72 h
[1] = tested on: 501Mel cells (parental); conditions: 501Mel Parental, 72 h
In short: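 Normalised to untreated controls, viability percentages came from PrestoBlue measured on a microplate reader following 72 h incubation with drug. Each line was assayed at least twice.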

[2] = tested on: 501Mel-GP cells (Dabrafenib-resistant); conditions: 501Mel GP, 72 h
[3] = tested on: 501Mel-XP cells (Vemurafenib-resistant); conditions: 501Mel XP, 72 h
[4] = tested on: A375 cells (parental); conditions: A375 Parental, 72 h; for cell viability, A375 Parental, 1μΜ / cell viability, A375 Parental, 10μΜ: in %
[5] = tested on: A375-GP cells (Dabrafenib-resistant); conditions: A375 GP, 72 h
[6] = tested on: A375-XP cells (Vemurafenib-resistant); conditions: A375 XP, 72 h; for cell viability, A375 XP, 1μΜ / cell viability, A375 XP, 10μΜ: in %
[7] = tested on: IGR37 cells (parental); conditions: IGR37 Parental, 72 h
[8] = tested on: IGR37-GP cells (Dabrafenib-resistant); conditions: IGR37 GP, 72 h
[9] = tested on: IGR37-XP cells (Vemurafenib-resistant); conditions: IGR37 XP, 72 h; for cell viability, IGR37 XP, 1μΜ: in %

Cc1ncc(-c2ccnc(Nc3ccc(S(C)(=O)=O)cc3)n2)n1C(C)C [AZD5438]
cell viability (kinase inhibitor library screening) ([1]; 1μΜ): 102.8% | cell viability (kinase inhibitor library screening) ([1]; 10μΜ): 103.6% | cell viability (kinase inhibitor library screening) ([2]; 1μΜ): 106.0% | cell viability (kinase inhibitor library screening) ([2]; 10μΜ): 93.9% | cell viability (kinase inhibitor library screening) ([3]; 1μΜ): 99.0% | cell viability (kinase inhibitor library screening) ([3]; 10μΜ): 80.3% | cell viability (kinase inhibitor library screening) ([4]; 10μΜ): 103.7% | cell viability (kinase inhibitor library screening) ([4]; 1μΜ): 106.4% | cell viability (kinase inhibitor library screening) ([5]; 1μΜ): 99.9% | cell viability (kinase inhibitor library screening) ([5]; 10μΜ): 102.9% | cell viability (kinase inhibitor library screening) ([6]; 1μΜ): 105.8% | cell viability (kinase inhibitor library screening) ([6]; 10μΜ): 110.3% | cell viability (kinase inhibitor library screening) ([7]; 1μΜ): 103.3% | cell viability (kinase inhibitor library screening) ([7]; 10μΜ): 110.8% | cell viability (kinase inhibitor library screening) ([8]; 1μΜ): 99.3% | cell viability (kinase inhibitor library screening) ([8]; 10μΜ): 97.8% | cell viability (kinase inhibitor library screening) ([9]; 1μΜ): 106.4% | cell viability (kinase inhibitor library screening) ([9]; 10μΜ): 82.4%

O=C1NC(=O)C(=Cc2ccc(-c3ccc(F)cc3)o2)S1 (stereo in doubt) [CAY10505]
Cell viability in kinase inhibitor library screening, 501Mel Parental, 1μΜ ([1]; 1μΜ, in %): 99.8 | Cell viability in kinase inhibitor library screening, 501Mel Parental, 10μΜ ([1]; 10μΜ, in %): 97.3 | Cell viability in kinase inhibitor library screening, 501Mel GP, 1μΜ ([2]; 1μΜ, in %): 96.4 | Cell viability in kinase inhibitor library screening, 501Mel GP, 10μΜ ([2]; 10μΜ, in %): 89.6 | Cell viability in kinase inhibitor library screening, 501Mel XP, 1μΜ ([3]; 1μΜ, in %): 99.8 | Cell viability in kinase inhibitor library screening, 501Mel XP, 10μΜ ([3]; 10μΜ, in %): 90.3 | Cell viability in kinase inhibitor library screening, A375 Parental, 10μΜ ([4]; 10μΜ): 93.9 | Cell viability in kinase inhibitor library screening, A375 Parental, 1μΜ ([4]; 1μΜ): 105.4 | Cell viability in kinase inhibitor library screening, A375 GP, 1μΜ ([5]; 1μΜ): 99.9 | Cell viability in kinase inhibitor library screening, A375 XP, 1μΜ ([6]; 1μΜ): 107.0 | Cell viability in kinase inhibitor library screening, A375 XP, 10μΜ ([6]; 10μΜ): 110.5 | Cell viability in kinase inhibitor library screening, IGR37 Parental, 1μΜ ([7]; 1μΜ, in %): 103.7 | Cell viability in kinase inhibitor library screening, IGR37 Parental, 10μΜ ([7]; 10μΜ, in %): 103.3 | Cell viability in kinase inhibitor library screening, IGR37 GP, 10μΜ ([8]; 10μΜ): 94.4% | Cell viability in kinase inhibitor library screening, IGR37 GP, 1μΜ ([8]; 1μΜ, in %): 98.2 | Cell viability in kinase inhibitor library screening, IGR37 XP, 10μΜ ([9]; 10μΜ): 77.3%

O=C(NOCC(O)CO)c1cc(Br)c(F)c(F)c1Nc1ccc(I)cc1F (centres unmarked) [PD318088]
cell viability, 501Mel Parental, 1μΜ ([1]; 1μΜ, in %): 54.5 | cell viability, 501Mel Parental, 10μΜ ([1]; 10μΜ, in %): 54.4 | cell viability, 501Mel GP, 1μΜ ([2]; 1μΜ, in %): 99.4 | cell viability, 501Mel GP, 10μΜ ([2]; 10μΜ, in %): 79.2 | cell viability, 501Mel XP, 1μΜ ([3]; 1μΜ, in %): 84.8 | cell viability, 501Mel XP, 10μΜ ([3]; 10μΜ, in %): 57.7 | cell viability, A375 Parental, 1μΜ ([4]; 1μΜ): 19.2 | cell viability, A375 Parental, 10μΜ ([4]; 10μΜ): 16.4 | cell viability, A375 GP, 1μΜ ([5]; 1μΜ, in %): 31.6 | cell viability, A375 GP, 10μΜ ([5]; 10μΜ, in %): 15.6 | cell viability, A375 XP, 1μΜ ([6]; 1μΜ): 36.7 | cell viability, A375 XP, 10μΜ ([6]; 10μΜ): 11.2 | cell viability, IGR37 Parental, 1μΜ ([7]; 1μΜ, in %): 37.8 | cell viability, IGR37 Parental, 10μΜ ([7]; 10μΜ, in %): 36.8 | cell viability, IGR37 GP, 10μΜ ([8]; 10μΜ): 66.4% | cell viability, IGR37 GP, 1μΜ ([8]; 1μΜ, in %): 76.0 | cell viability, IGR37 XP, 10μΜ ([9]; 10μΜ): 22.8% | cell viability, IGR37 XP, 1μΜ ([9]; 1μΜ): 63.3

C#Cc1cccc(Nc2ncnc3cc(OCCOC)c(OCCO)cc23)c1 [Desmethyl Erlotinib (CP-473420)]
cell viability, 501Mel Parental, 10μΜ ([1]; 10μΜ, in %): 82.4 | cell viability, 501Mel GP, 1μΜ ([2]; 1μΜ, in %): 107.4 | cell viability, 501Mel GP, 10μΜ ([2]; 10μΜ, in %): 74.9 | cell viability, 501Mel XP, 1μΜ ([3]; 1μΜ, in %): 100.0 | cell viability, 501Mel XP, 10μΜ ([3]; 10μΜ, in %): 41.7 | cell viability, A375 Parental, 1μΜ ([4]; 1μΜ): 104.3 | cell viability, A375 Parental, 10μΜ ([4]; 10μΜ): 78.2 | cell viability, A375 GP, 10μΜ ([5]; 10μΜ, in %): 65.7 | cell viability, A375 XP, 1μΜ ([6]; 1μΜ): 100.2 | cell viability, A375 XP, 10μΜ ([6]; 10μΜ): 81.3 | cell viability, IGR37 Parental, 1μΜ ([7]; 1μΜ, in %): 99.9 | cell viability, IGR37 Parental, 10μΜ ([7]; 10μΜ, in %): 92.4 | cell viability, IGR37 GP, 10μΜ ([8]; 10μΜ): 73.5% | cell viability, IGR37 GP, 1μΜ ([8]; 1μΜ, in %): 85.7 | cell viability, IGR37 XP, 10μΜ ([9]; 10μΜ): 49.7% | cell viability, IGR37 XP, 1μΜ ([9]; 1μΜ): 80.3
